Measured values reported in ChEMBL document CHEMBL1142094, “Effects of glutathione and ascorbic acid on streptomycin sensitivity of Escherichia coli” (2007).
In brackets after ≈: the same amount, converted by molar mass. Activity calls are given as the source filed them. The calls are words filed in the database; no cut-off is given here.

Key:
Escherichia coli [1] = assay: Susceptibility of Escherichia coli K12 MG1655 by agar dilution method; assay type: functional
Escherichia coli [2] = assay: Susceptibility of Escherichia coli K12 MG1655 in presence of 10 mM glutathione by agar dilution method relative to control; assay type: functional
Escherichia coli [3] = assay: Increase in ROS levels in Escherichia coli K12 MG1655 assessed as ratio of ROS with antibiotic to ROS without antibiotic; assay type: functional
Escherichia coli [4] = assay: Antibacterial activity against Escherichia coli K12 DH5alpha in presence of 10 mM ascorbic acid; assay type: functional
Escherichia coli [5] = assay: Antibacterial activity against Escherichia coli K12 MG1655 in presence of ascorbic acid by agar dilution method relative to control; assay type: functional
Escherichia coli [6] = assay: Antibacterial activity against Escherichia coli K12 W3110 in presence of 10 mM ascorbic acid; assay type: functional
Escherichia coli [7] = assay: Antibacterial activity against Escherichia coli K12 XL1 Blue in presence of 10 mM ascorbic acid; assay type: functional
Escherichia coli [8] = assay: Decrease in sensitivity of Escherichia coli K12 MG1655 assessed as reduction in zone of inhibition in presence of 10 mM glutathione by disk diffusion method; assay type: functional, organism-based
Escherichia coli [9] = assay: Antibacterial activity against Escherichia coli K12 XL1 Blue; assay type: functional
Escherichia coli [10] = assay: Antibacterial activity against Escherichia coli K12 W3110; assay type: functional
Escherichia coli [11] = assay: Antibacterial activity against Escherichia coli K12 DH5alpha; assay type: functional
Escherichia coli [12] = assay: Decrease in sensitivity of Escherichia coli K12 MG1655 assessed as reduction in zone of inhibition in presence of 10 mM ascorbic acid by disk diffusion method; assay type: functional, organism-based

Compound	MIC (Escherichia coli [1])	MIC (Escherichia coli [2])	Ratio (Escherichia coli [3])	further results
O=C(N[C@H](CO)[C@H](O)c1ccc([N+](=O)[O-])cc1)C(Cl)Cl [CHLORAMPHENICOL]	8 µg/mL (≈ 24.8 µM)	4 µg/mL	–	–
O=C(O)c1cn(C2CC2)c2cc(N3CCNCC3)c(F)cc2c1=O [CIPROFLOXACIN]	–	–	1.1	–
NC[C@H]1O[C@H](O[C@H]2[C@H](O)[C@@H](O[C@H]3O[C@H](CO)[C@@H](O)[C@H](N)[C@H]3O)[C@H](N)C[C@@H]2N)[C@H](O)[C@@H](O)[C@@H]1O [KANAMYCIN]	6 µg/mL (≈ 12.4 µM)	> 250 µg/mL	0.87	–
CC1=CC(=O)c2ccccc2C1=O [MENADIONE]	–	–	2.02	–
CN[C@@H]1[C@H](O)[C@H](NC)[C@H]2O[C@@]3(O)C(=O)C[C@@H](C)O[C@H]3O[C@@H]2[C@H]1O [SPECTINOMYCIN]	20 µg/mL (≈ 60.2 µM)	> 300 µg/mL	–	–
CN[C@@H]1[C@H](O[C@H]2[C@H](O[C@H]3[C@H](O)[C@@H](O)[C@H](N=C(N)N)[C@@H](O)[C@@H]3N=C(N)N)O[C@@H](C)[C@]2(O)C=O)O[C@@H](CO)[C@H](O)[C@H]1O [STREPTOMYCIN]	8 µg/mL (≈ 13.8 µM)	> 250 µg/mL	0.78	MIC (Escherichia coli [4]): > 8 µg/mL; MIC (Escherichia coli [5]): 20 µg/mL; MIC (Escherichia coli [6]): > 8 µg/mL; MIC (Escherichia coli [7]): > 8 µg/mL; Activity (Escherichia coli [8]): Active; MIC (Escherichia coli [9]): 4 µg/mL (≈ 6.88 µM); MIC (Escherichia coli [10]): 4 µg/mL (≈ 6.88 µM); MIC (Escherichia coli [11]): 4 µg/mL (≈ 6.88 µM); Activity (Escherichia coli [12]): Active
CN(C)[C@@H]1C(O)=C(C(N)=O)C(=O)[C@@]2(O)C(O)=C3C(=O)c4c(O)cccc4[C@@](C)(O)[C@H]3C[C@@H]12 [TETRACYCLINE]	4 µg/mL (≈ 9 µM)	4 µg/mL	0.96	–
GENTAMICIN	2 µg/mL	> 200 µg/mL	1	–
